Data on 16 compounds can be found in ChEMBL document CHEMBL3877336, “Structure-Based Design of ASK1 Inhibitors as Potential Agents for Heart Failure” (ACS Med Chem Lett, 2017).

Data set [1] addresses T1, Mitogen-activated protein kinase kinase kinase 5 (Homo sapiens, UniProt Q99683).
T1 sequence (Q99683 whole entry): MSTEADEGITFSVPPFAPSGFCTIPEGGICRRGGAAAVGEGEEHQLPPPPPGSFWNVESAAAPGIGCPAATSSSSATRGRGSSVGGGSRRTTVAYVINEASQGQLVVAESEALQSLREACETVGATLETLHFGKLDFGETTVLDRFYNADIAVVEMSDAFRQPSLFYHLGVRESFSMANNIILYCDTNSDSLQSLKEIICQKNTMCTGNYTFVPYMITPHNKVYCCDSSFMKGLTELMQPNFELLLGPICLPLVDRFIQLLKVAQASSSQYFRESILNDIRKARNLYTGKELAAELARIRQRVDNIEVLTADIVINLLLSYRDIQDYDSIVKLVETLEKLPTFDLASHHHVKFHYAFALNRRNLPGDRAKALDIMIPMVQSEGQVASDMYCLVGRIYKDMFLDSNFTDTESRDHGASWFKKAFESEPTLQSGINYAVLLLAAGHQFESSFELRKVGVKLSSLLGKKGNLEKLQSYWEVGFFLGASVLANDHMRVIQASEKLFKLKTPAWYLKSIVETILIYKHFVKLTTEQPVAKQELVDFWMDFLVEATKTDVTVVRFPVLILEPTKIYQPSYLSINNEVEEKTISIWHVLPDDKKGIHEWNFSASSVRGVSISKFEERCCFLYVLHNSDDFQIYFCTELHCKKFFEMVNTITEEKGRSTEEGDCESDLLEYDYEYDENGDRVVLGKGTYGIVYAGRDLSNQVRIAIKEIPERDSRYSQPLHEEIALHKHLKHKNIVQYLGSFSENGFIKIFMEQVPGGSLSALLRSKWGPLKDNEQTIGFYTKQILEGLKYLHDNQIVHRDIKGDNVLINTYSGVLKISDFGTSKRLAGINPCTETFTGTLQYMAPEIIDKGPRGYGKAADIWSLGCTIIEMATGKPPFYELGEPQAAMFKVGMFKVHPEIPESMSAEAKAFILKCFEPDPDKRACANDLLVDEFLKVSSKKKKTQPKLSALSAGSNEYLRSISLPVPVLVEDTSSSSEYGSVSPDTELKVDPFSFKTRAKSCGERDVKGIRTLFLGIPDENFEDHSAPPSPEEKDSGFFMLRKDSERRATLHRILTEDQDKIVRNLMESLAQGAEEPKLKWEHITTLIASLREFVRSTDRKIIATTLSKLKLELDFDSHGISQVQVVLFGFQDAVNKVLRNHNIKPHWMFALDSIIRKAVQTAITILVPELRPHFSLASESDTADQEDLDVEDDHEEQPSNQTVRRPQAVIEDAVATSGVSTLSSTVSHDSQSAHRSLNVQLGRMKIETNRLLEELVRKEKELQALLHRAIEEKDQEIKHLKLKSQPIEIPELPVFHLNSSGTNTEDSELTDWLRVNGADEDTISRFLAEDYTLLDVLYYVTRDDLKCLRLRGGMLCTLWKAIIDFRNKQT
Description: Inhibition of recombinant human N-terminal GST-tagged ASK1 catalytic domain (654 to 971 residues) expressed in baculovirus infected sf21 cells using STK3 as substrate after 60 mins by HTRF assay. On the technique in general: TR-FRET usually uses a lanthanide donor and a delayed reading to cut background.

In data set [2] the target is T1, Mitogen-activated protein kinase kinase kinase 5. Briefly: Inhibition of human ASK1 expressed in HEK293 cells assessed as inhibition of H2O2-induced JNK phosphorylation preincubated for 30 mins followed by H2O2 addition measured after 30 mins by ELISA. In kind it is cell-based.
Data set [3] relates to MDR1 (human). Description: Apparent permeability from basolateral to apical side in pig LLC-PK1 cells expressing human MDR1 at 10 uM after 2 hrs by LC-MS/MS analysis. In kind it is ADME, cell-based, Sus scrofa.
Data set [4] in a line: Intrinsic clearance in human liver microsomes at 1 uM up to 30 mins in presence of NADPH by UPLC-MS/MS analysis. Particulars: read-out: CLH. In kind it is ADME.
Data set [5] in a line: Intrinsic clearance in rat liver microsomes at 1 uM up to 30 mins in presence of NADPH by UPLC-MS/MS analysis. In kind it is ADME. Particulars: read-out: CLH. (Liver microsomes are vesicles of endoplasmic reticulum, rich in cytochrome P450 enzymes.)
Data set [6] deals with Rattus norvegicus. Briefly: Anti-ischemic activity in Langendorff perfused Sprague-Dawley rat heart assessed as reduction in infarct size at 2.25 mg/kg, po administered via gavage 8 hrs prior to ischemia/reperfusion relative to control. In kind it is functional. Set-up: scale not given: the % may be the effect or the level left.
Data set [7] concerns Rattus norvegicus. Description: Anti-ischemic activity in Langendorff perfused Sprague-Dawley rat heart assessed as reduction in infarct size at 2.25 mg/kg, po administered via gavage administered 1 hr prior to ischemia/reperfusion relative to control. In kind it is functional. On the set-up: scale not given: the % may be the effect or the level left.
The nature of data set [8]: Solubility of the compound in pH 1 solution at 155 uM after overnight incubation by HPLC method. In kind it is physicochemical. Particulars: buffer, pH 1, 155 µM.
Data set [9] concerns MDR1 (human). Description: Apparent permeability from apical to basolateral side in pig LLC-PK1 cells expressing human MDR1 at 10 uM after 2 hrs by LC-MS/MS analysis. In kind it is ADME, cell-based, Sus scrofa.

Usually IC50 stands for the concentration that gives 50% inhibition. As for `CC[C@@H](C)n1cnnc1-c1cccc(N2Cc3ccccc3C2=O)n1`, the IC50 in [1] is 50.1 nM. On the same count and under the same terms, the value for `Cc1ccc(C(=O)Nc2cccc(-c3nncn3C(C)C)n2)c(F)c1` was 50.1 nM; that for `CC(CF)n1cnnc1-c1cccc(N2Cc3ccccc3C2=O)n1` (stereo not drawn) was 12.6 nM. Regarding `CC(CC#N)n1cnnc1-c1cccc(N2Cc3ccccc3C2=O)n1` (stereo not drawn), the IC50 in data set [1] is 20 nM. Still for that read-out and setting: the value for `C[C@@H](CO)n1cnnc1-c1cccc(N2Cc3ccccc3C2=O)n1` was 31.6 nM. As a reminder, the EC50 is the concentration needed to bring the measured effect to its halfway point. In the case of `CC(C)Oc1ccc2c(c1)C(=O)N(c1cccc(-c3nncn3C(C)C)n1)C2`, the IC50 in data set [1] is 15.8 nM. Besides, in [2], the half-maximal effective concentration (EC50) was 31.6 nM. For the compound `CC[C@H](C)n1cnnc1-c1cccc(N2Cc3ccccc3C2=O)n1`, the IC50 in data set [1] was 20 nM. Take `CC(C)n1cnnc1-c1cccc(N2Cc3ccc(OC[C@@H]4CN(C)CCO4)cc3C2=O)n1`: the IC50 in [1] is 6.31 nM. Also, the EC50 in data set [2] was 6.31 nM.

Consider `CC(C)n1cnnc1-c1cccc(N2Cc3ccccc3C2=O)n1`, for which the IC50 in [1] was 12.6 nM. The same measure, in the same setting: the value for `CC(CCO)n1cnnc1-c1cccc(N2Cc3ccccc3C2=O)n1` (stereo not drawn) was 39.8 nM. One may read the Papp B→A as the apparent permeability from the basolateral to the apical side of a cell layer. A word on the Papp A→B: it is how fast a substance crosses the layer from the apical side. Consider `CC(C)Oc1ccc2c(c1)C(=O)N(c1cccc(-c3nncn3[C@H](C)CO)n1)C2`, for which the IC50 in data set [1] was 5.01 nM. Moreover, the basolateral-to-apical permeability (Papp B→A) at 2 h, 10 µM with MDR1 (human) [3] worked out at 26.2 ×10⁻⁶ cm/s. The CLint scaled at 1 µM in [4] was below 8.3 mL/min/kg; in data set [5], below 16.6 mL/min/kg. Moreover, the figures for the Activity in the data set on Rattus norvegicus [6] and in the data set with Rattus norvegicus [7] were 24% and 42%, respectively. Besides, in data set [2], the 50% effective concentration (EC50) was 6.31 nM. In addition, in data set [8], the solubility result is recorded as “Soluble”. Moreover, the apical-to-basolateral permeability (Papp A→B) at 2 h, 10 µM in the data set on MDR1 (human) [9] amounted to 5.49 ×10⁻⁶ cm/s. In the case of `O=C1c2ccccc2CN1c1cccc(-c2nncn2CC2CCO2)n1` (stereo not drawn), the IC50 in [1] was 794 nM.

Regarding `C[C@H](CO)n1cnnc1-c1cccc(N2Cc3ccccc3C2=O)n1`, the IC50 in [1] was 10 nM.

Regarding `COCCOc1ccc2c(c1)C(=O)N(c1cccc(-c3nncn3C(C)C)n1)C2`, in data set [1], the IC50 is 7.94 nM. In addition, the EC50 in [2] is 15.8 nM. The matching figures for `COCCOc1ccc2c(c1)C(=O)N(c1cccc(-c3nncn3[C@H](C)CO)n1)C2`: 7.94 nM and 12.6 nM.

As to `Cc1cc(F)c(C(=O)Nc2ccccn2)cc1-n1cnc(C2CC2)c1`, in data set [1], the concentration for half-maximal inhibition (IC50) is 6310 nM.
